Assay results reported in US6528535B2, “Bicyclic inhibitors of protein farnesyl transferase” (Warner-Lambert Company, priority 1997, dated 2003).

How the values were obtained:
[1] = tested on: human lung carcinoma with K-ras mutation and p53 deletion; details: nude mice; cited from earlier work
[2] = tested on: human colon carcinoma xenografts; details: 100 mg/kg; human colon carcinoma xenografts in nude mice; cited from earlier work
[3] = tested on: EJ-1 human bladder carcinoma; details: 100 mg/kg; EJ-1 human bladder carcinoma xenograft in nude mice; cited from earlier work
[4] = tested on: HT1080 human fibrosarcoma; details: 100 mg/kg; HT1080 human fibrosarcoma xenograft in nude mice; cited from earlier work
[5] = molecular target: T1, SF9 affinity purified rat FPT (Rattus norvegicus, UniProt Q02293+Q04631); assay: PFT (farnesyl protein transferase) inhibitory activity, radiolabeled farnesyl pyrophosphate / biotinyl peptide bead assay; format: biochemical; details: average of two tests unless n is given in parentheses; read-out: FTase, IC50
T1 construct: made in house; host or cells: Sf9 insect cells
Protocol: The protein:farnesyl transferase (PFT) or farnesyl protein transferase (FPT) inhibitory activity of compounds of the present invention were assayed in HEPES buffer (pH 7.4) containing 5 mM potassium phosphate and 20 μM ZnCl2. The solution also contained 5 mM DTT (dithiothreitol), 5 mM MgCl2, and 0.1% PEG 8000. Assays were performed in 96 well plates (Wallec) and employed solutions composed of varying concentrations of a compound of the present invention in 10% DMSO (dimethylsulfoxide). Upon addition of both substrates, radiolabeled farnesyl pyrophosphate ([1^3H], specific activity 15-30 Ci/mmol, final concentration 134 nM) and (biotinyl)-Ahe-Thr-Lys-Cys-Val-Ile-Met ([3aS[3a alpha, 4 beta, 6a alpha]-hexahydro-2-oxo-1H-thieno[3,4-d]imidazole-5-pentanoic acid]-[7-aminoheptanoic acid]-Thr-Lys-Cys-Val-Ile-Met) (Ahe is 7-aminoheptanoic acid, Thr is threonine, Lys is lysine, Cys is cysteine, Val is valine, Ile is isoleucine, and Met is methionine) (final concentration 0.2 μM), the enzyme reaction was started by addition of SF9 affinity purified rat FPT. After incubation at 30° C. for 30 minutes, the reaction was terminated by diluting the reaction 2.5-fold with a stop buffer containing 1.5 M magnesium acetate, 0.2 M H3PO4, 0.5% BSA (bovine serum albumin), and strepavidin beads (Amersham) at a concentration of 1.3 mg/mL. After allowing the plate to settle for 30 minutes at room temperature, radioactivity was quantitated on a microbeta counter (Model 1450, Wallec). The assay was also carried out without 5 mM potassium phosphate.

[6] = tested on: mammary and salivary carcinomas; details: daily administration; ras transgenic mice; cited from earlier work

| melting point [°C] | IC50 [5] [nM] | SMILES | other results |
| --- | --- | --- | --- |
| – | – | CSCC[C@H](NC(=O)c1ccc(NC[C@@H](N)CS)cc1-c1ccccc1)C(=O)O [FTI276] | tumor growth [1]: selectively block tumor growth |
| – | – | COC(=O)[C@H](CCSC)NC(=O)[C@H](/C=C\[C@@H](/C=C/[C@@H](N)CS)C(C)C)Cc1ccccc1 [Example B1086] | tumor growth [2]: inhibit tumor growth; tumor growth [3]: inhibit tumor growth; tumor growth [4]: inhibit tumor growth |
| 65 to 70 | 590 | CSc1ccc(C=C2CCc3cc(OCCc4c[nH]cn4)ccc3C2=O)cc1 [Example 31, 6-[2-(1H-Imidazole-4-yl)-ethoxy]-2-(4-methylsulfanyl-benzylidene)-3,4-dihydro-2H-naphthalen-1-one] | – |
| 61 to 62 | 120 | O=C1C(=Cc2ccsc2)CCc2cc(OCCn3ccnc3)ccc21 [Example 11, 6-(2-Imidazole-1yl-ethoxy)-2-thiophen-3-ylmethylene-3,4-dihydro-2H-naphthalen-1-one] | – |
| 182 to 184 | 400 | Cc1c(OCCn2ccnc2)ccc2c1CC/C(=C\c1cccs1)C2=O [Example 48, 6-[2-(1H-1-Imidazolyl)ethoxy]-5-methyl-2-[(E)-1-(2-thienyl)methylidene]-1,2,3,4-tetrahydro-1-naphthalenone] | – |
| 128.5 to 129 | 1260 | O=C1C(=Cc2ccncc2)CCc2cc(OCCn3ccnc3)ccc21 [Example 6, 6-(2-Imidazole-1-yl-ethoxy)-2-pyridin-4-ylmethylene-3,4-dihydro-2H-naphthalen-1-one] | – |
| 53 to 56 | 890 | O=C1C(=Cc2ccccc2)CCc2cc(OCCc3c[nH]cn3)ccc21 [Example 30, 2-Benzylidene-6-[2-(1H-imidazole-4-yl)-ethoxy]-3,4-dihydro-2H-naphthalen-1-one] | – |
| 94 to 96 | 170 | O=C1C(=Cc2ccsc2)CCc2cc(OCCc3c[nH]cn3)ccc21 [Example 28, 6-[2-(1H-Imidazole-4-yl)-ethoxy]-2-thiophen-3-ylmethylene-3,4-dihydro-2H-naphthalen-1-one] | – |
| – | – | CC[C@H](C)[C@@H](CO[C@@H](Cc1ccccc1)C(=O)N[C@@H](CCS(C)(=O)=O)C(=O)OC(C)C)NC[C@@H](N)CS [L-744,832] | tumor regression [6]: caused tumor regression |
| 177 to 179 | 3000 | ON=C1CCCc2cc(OCCn3ccnc3)ccc21 [Example 53, 6-[2-(1H-1-Imidazolyl)ethoxyl]-1,2,3,4-tetrahydro-1-naphthalenone oxime] | – |
| 161 to 161.5 | 78 | CSc1ccc(C=C2CCc3cc(OCCn4ccnc4)ccc3C2=O)cc1 [Example 4] | – |
| 160 to 162 | 230 | CC(COc1ccc2c(c1)CC/C(=C\c1cccs1)C2=O)n1ccnc1 (centres unmarked) [Example 79, 6-[2-(1H-1-Imidazolyl)propoxy]-2-[(E)-1-(2-thienyl)methylidene]-1,2,3,4-tetrahydro-1-naphthalenone] | – |
| 128 to 130 | 4400 | O=C1CCOc2cc(OCCn3ccnc3)ccc21 [Example 51, 7-[2-(1H-1-Imidazolyl)ethoxy]-4-chromanone] | – |
| 60 to 63 | 88 | O=C1C(=Cc2cccs2)CCc2cc(OCCc3c[nH]cn3)ccc21 [Example 29, 6-[2-(1H-Imidazole-4-yl)-ethoxy]-2-thiophen-2-ylmethylene-3,4-dihydro-2H-naphthalen-1-one] | – |
| 139 to 140 | 120 | O=C1CC(c2ccccc2)Oc2cc(OCCn3ccnc3)ccc21 (centres unmarked) [Example 76, 7-[2-(1H-1-Imidazolyl)ethoxy]-2-phenyl-4-chromanone] | – |
| 150 to 151 | 15400 | Cc1cc2c(cc1OCCn1ccnc1)CC/C(=C\c1cccs1)C2=O [Example 46, 6-[2-(1H-1-Imidazolyl)ethoxy]-7-methyl-2-[(E)-1-(2-thienyl)methylidene]-1,2,3,4-tetrahydro-1-naphthalenone] | – |
| 102 to 104 | 700 | CSc1ccc(C=C2CCc3cc(OCCn4ccnc4)ccc3C2=O)s1 [Example 19, 6-(2-Imidazole-1-yl-ethoxy)-2-(5-methylsulfanyl-thiophen-2-ylmethylene)-3,4-dihydro-2H-naphthalen-1-one] | – |
| 57 to 60 | 190 | O=C1C(=Cc2ccco2)CCc2cc(OCCc3c[nH]cn3)ccc21 [Example 41, 2-Furan-2-ylmethylene-6-[2-(1H-imidazole-4-yl)-ethoxy]-3,4-dihydro-2H-naphthalen-1-one] | – |
